Reference: ChEMBL document CHEMBL1201862, “PubChem BioAssay data set” (2004)
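1) Cells in 96-well plates. 2) Compound, 48 h, 5 concentrations. 3) Linear interpolation between surrounding doses. 4) Unreached endpoint = highest concentration. Here, GI50 denotes the concentration required for 50% inhibition of growth.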 Calls of active or inactive are those of the source. Cut-off read from the data, not from the text of the source: active = GI50 up to about 1.1 µM and inactive = higher.

Tests used:
Assay in all cases: growth of human tumour cells (NCI), 48 h
786-0 = test system: 786-0
ACHN = test system: ACHN
COLO 205 = test system: COLO 205
HL-60 = test system: HL-60
HT-29 = test system: HT-29
K562 = test system: K562
KM12 = test system: KM12
M14 = test system: M14
NCI-H226 = test system: NCI-H226
OVCAR-3 = test system: OVCAR-3
SK-MEL-2 = test system: SK-MEL-2
SK-MEL-5 = test system: SK-MEL-5
SN12C = test system: SN12C
SNB-75 = test system: SNB-75
TK-10 = test system: TK-10
UACC-257 = test system: UACC-257
EKVX = test system: EKVX

SMILES	GI50 (786-0)	GI50 (ACHN)	GI50 (COLO 205)	GI50 (HL-60)	GI50 (HT-29)	GI50 (K562)	GI50 (KM12)	GI50 (M14)	GI50 (NCI-H226)	GI50 (OVCAR-3)	GI50 (SK-MEL-2)	GI50 (SK-MEL-5)	GI50 (SN12C)	GI50 (SNB-75)	GI50 (TK-10)	GI50 (UACC-257)	GI50 (EKVX)
C=CCCCCn1c2ccccc2c2c(C)c3c[n+](C)ccc3c(C)c21	0.752 µM (active)	2.68 µM (inactive)	0.25 µM (active)	0.171 µM (active)	0.271 µM (active)	0.281 µM (active)	0.392 µM (active)	0.979 µM (active)	0.212 µM (active)	0.288 µM (active)	0.396 µM (active)	0.329 µM (active)	0.234 µM (active)	0.713 µM (active)	1.86 µM (inactive)	0.391 µM (active)	
Nc1ncnc(NC2C=C(CO)C(O)C2O)c1[N+](=O)[O-] (configuration not stated)	> 100 µM (inactive)	> 100 µM (inactive)	60.3 µM (inactive)	> 100 µM (inactive)	> 100 µM (inactive)	> 100 µM (inactive)	> 100 µM (inactive)	> 100 µM (inactive)	> 100 µM (inactive)	> 100 µM (inactive)	> 100 µM (inactive)	> 100 µM (inactive)	> 100 µM (inactive)	> 100 µM (inactive)	> 100 µM (inactive)	> 100 µM (inactive)	> 100 µM (inactive)
O=C(OC1CC(n2cc(F)c(=O)[nH]c2=O)OC1CSC(=O)c1ccccc1)c1ccccc1 (configuration not stated)	32.1 µM (inactive)	34.6 µM (inactive)	29.6 µM (inactive)	23.3 µM (inactive)	17.8 µM (inactive)	54.3 µM (inactive)	27.4 µM (inactive)	28.1 µM (inactive)	31.3 µM (inactive)	23.4 µM (inactive)	48.5 µM (inactive)		28.1 µM (inactive)	19.4 µM (inactive)	> 100 µM (inactive)	29.2 µM (inactive)	33.3 µM (inactive)
COC1(OC)CCC2C1C1CCC(OC)(OC)C21 (configuration not stated)	> 50 µM (inactive)	> 50 µM (inactive)	> 50 µM (inactive)	> 50 µM (inactive)	> 50 µM (inactive)	> 50 µM (inactive)	> 50 µM (inactive)	> 50 µM (inactive)	> 50 µM (inactive)	> 50 µM (inactive)	> 50 µM (inactive)	> 50 µM (inactive)	> 50 µM (inactive)	> 50 µM (inactive)		> 50 µM (inactive)	> 50 µM (inactive)
CC(C)CCC[C@@H](C)C1CCC2[C@@H]3CC=C4C[C@@H](OC(=O)CCC(=O)NCC[N+](C)(C)CCCS(=O)(=O)[O-])CC[C@]4(C)C3CC[C@@]21C (some centres not stated)	25.8 µM (inactive)	23.9 µM (inactive)	19.6 µM (inactive)	18.8 µM (inactive)	26.7 µM (inactive)	18.9 µM (inactive)	20.5 µM (inactive)	19.7 µM (inactive)	27.4 µM (inactive)	17.9 µM (inactive)	18.8 µM (inactive)	> 10 µM (inactive)	19.5 µM (inactive)	21.1 µM (inactive)		23.2 µM (inactive)	29.2 µM (inactive)
c1ccc2c(C3NCCc4nc[nH]c43)cccc2c1 (configuration not stated)	> 100 µM (inactive)	> 100 µM (inactive)	> 100 µM (inactive)		> 100 µM (inactive)	> 100 µM (inactive)	> 100 µM (inactive)	> 100 µM (inactive)	> 100 µM (inactive)	> 100 µM (inactive)	> 100 µM (inactive)	> 100 µM (inactive)	> 100 µM (inactive)	> 100 µM (inactive)	> 100 µM (inactive)	> 100 µM (inactive)	
COC1=CC(=O)C2C(C1=O)[C@@H]1c3ccccc3C[C@H]21 (some centres not stated)	> 100 µM (inactive)	> 100 µM (inactive)	> 100 µM (inactive)	> 100 µM (inactive)	> 100 µM (inactive)	> 100 µM (inactive)	> 100 µM (inactive)	> 100 µM (inactive)		> 100 µM (inactive)	> 100 µM (inactive)	> 100 µM (inactive)		89.9 µM (inactive)	> 100 µM (inactive)	> 100 µM (inactive)	> 100 µM (inactive)
CCOC(=O)C1S/C(=N\c2cccc(Cl)c2C)N=C1C (configuration not stated)	16.1 µM (inactive)	25.3 µM (inactive)	21.4 µM (inactive)	21.6 µM (inactive)	17 µM (inactive)	34.1 µM (inactive)	27 µM (inactive)		32.8 µM (inactive)	22.9 µM (inactive)	19.5 µM (inactive)		18.8 µM (inactive)	16.3 µM (inactive)	35.6 µM (inactive)	> 10 µM (inactive)	> 10 µM (inactive)
CC12CCC(=O)N1c1cc([N+](=O)[O-])ccc1N2 (configuration not stated)	> 100 µM (inactive)	> 100 µM (inactive)	> 100 µM (inactive)	> 100 µM (inactive)	> 100 µM (inactive)	> 100 µM (inactive)	> 100 µM (inactive)	> 100 µM (inactive)	> 100 µM (inactive)	> 100 µM (inactive)	> 100 µM (inactive)	> 100 µM (inactive)	> 100 µM (inactive)	> 100 µM (inactive)		> 100 µM (inactive)	> 100 µM (inactive)
